From US9803021B2 (The Regents of the University of California, priority 2012, dated 2017)
“Also recorded” adds a separate entry of the source.

Legend:
Type in all cases: cell-based, human
Daudi cells = test: MTS cell viability assay; conditions: 72 h / 3 day incubation
Procedure: (§1) Percent cell viability was determined using MTS solution (Promega, Madison, Wis.) by measuring absorbance at 490 nm using a Synergy HT Multi-Detection Microplate Reader (BioTek Instruments, Inc., Winooski, Vt.) with untreated cells being 100%. GraphPad Prism (GraphPad Software Inc., La Jolla, Calif.) was used to analyze data by non-linear regression with the log (inhibitor) vs. the response with a variable slope with the IC50 calculated. Data are expressed as a percentage of maximum metabolic activity. The experiments were performed in triplicate.
as §1, with “Metabolic activity” for “Percent cell viability”, “(Promega)” for “(Promega, Madison, Wis.)”, “Instruments Inc.)” for “Instruments, Inc., Winooski, Vt.)”, “Inc.)” for “Inc., La Jolla, Calif.)”, “versus” for “vs.”, “slope.” for “slope with the IC50 calculated.”

ANBL-6 = test: MTS assay (cell viability / metabolic activity); conditions: ANBL-6, 3 days or 7 days
Procedure: as §1
as §1, with “Metabolic activity” for “Percent cell viability”, “(Promega)” for “(Promega, Madison, Wis.)”, “Instruments Inc.)” for “Instruments, Inc., Winooski, Vt.)”, “Inc.)” for “Inc., La Jolla, Calif.)”, “versus” for “vs.”, “slope.” for “slope with the IC50 calculated.”

8226/S = test: MTS assay (cell viability / metabolic activity); conditions: 8226/S (RPMI 8226), 3 days or 4 days
Procedure: as §1
as §1, with “Metabolic activity” for “Percent cell viability”, “(Promega)” for “(Promega, Madison, Wis.)”, “Instruments Inc.)” for “Instruments, Inc., Winooski, Vt.)”, “Inc.)” for “Inc., La Jolla, Calif.)”, “versus” for “vs.”, “slope.” for “slope with the IC50 calculated.”

OCI-My5 = test: MTS assay (cell viability / metabolic activity); conditions: OCI-My5, 3 days
Procedure: as §1
as §1, with “Metabolic activity” for “Percent cell viability”, “(Promega)” for “(Promega, Madison, Wis.)”, “Instruments Inc.)” for “Instruments, Inc., Winooski, Vt.)”, “Inc.)” for “Inc., La Jolla, Calif.)”, “versus” for “vs.”, “slope.” for “slope with the IC50 calculated.”

ppRb in MM1-144 = test: Western blot of ppRb; conditions: MM1-144, 1 nM, 48 hours
Procedure: (§2) Cells were lysed using RIPA buffer (50 mM Tris HCl pH 8, 150 mM NaCl, 1% NP-40, 0.5% sodium deoxycholate, 0.1% SDS) containing a protease inhibitor cocktail (Roche Applied Science, Indianapolis, Ind.). The cytosolic fractions were reduced with β-mercaptoethanol and separated by SDS-PAGE. Following transfer to nitrocellulose membrane (Whatman, Piscataway, N.J.) and blocking, samples were incubated with the following primary rabbit antibodies: anti-IRF4 (Epitomics, Berlingham, Calif.), anti-glyceraldehyde-3-phosphate dehydrogenase (GAPDH; Sigma), anti-ppRb Ser807/811 (Santa Cruz Biotechnology, Santa Cruz, Calif.), anti-cyclin D (Millipore, Billerica, Mass.), or anti-β tubulin (Abcam, Cambridge, Mass.). Secondary anti-rabbit IgG-HRP (GE Healthcare, Billerica, Mass.) was used and the blots were developed using enhanced chemiluminescence (ECL; Thermo Scientific, Waltham, Mass.).
(§3) Cells were lysed using RIPA buffer (50 mM Tris-HCl pH 8, 150 mM NaCl, 1% NP-40, 0.5% sodium deoxycholate, 0.1% SDS) containing a protease inhibitor cocktail (Roche Applied Science). The cytosolic fractions were reduced with β-mercaptoethanol and separated by SDS PAGE. Following transfer to nitrocellulose membrane (Whatman) and blocking, samples were incubated with the following primary rabbit antibodies: anti-IRF-4 (Epitomics), anti-glyceraldehyde-3-phosphate dehydrogenase (GAPDH; Sigma), or anti-ppRb Ser807/811 (Santa Cruz Biotechnology). Secondary anti-rabbit IgG-HRP (GE Healthcare) was used and the blots were developed using enhanced chemiluminescence (ECL; Thermo Scientific). Films were imaged using a Multilmage™ Light Cabinet (Alpha Innotech Corp.) and analyzed using NIH Image J. Bands were normalized to a GAPDH loading control and expressed as percentage band intensity of untreated cells.

ppRb in NCI-H929 = test: Western blot of ppRb; conditions: NCI-H929, 1 nM, 48 hours
Procedure: as §2, §3

ppRb in OCI-My5 = test: Western blot of ppRb; conditions: OCI-My5, 1 nM, 48 hours
Procedure: as §2, §3

anti-CD138-IFNα: Fusion protein: murine B-B4 anti-CD138 variable regions, human IgG1κ constant regions, human IFNα2 fused to the antibody C-terminus via SGGGGS linker
cell viability (MTS assay), result in words (Daudi cells): just as effective as recombinant IFNα | cell viability / growth inhibition (MTS assay), result in words (ANBL-6): more effective than untargeted anti-CD20-IFNα; also recorded: more effective at decreasing cell viability than IFNα alone | cell viability / growth inhibition (MTS assay), result in words (ANBL-6; listed as Anti-CD138-IFNα): more effective than anti-CD138-mutIFNα | cell viability / growth inhibition (MTS assay), result in words (ANBL-6; listed as Anti-CD138-IFNα2): more effective than recombinant IFNα2 | cell viability / growth inhibition (MTS assay), result in words (8226/S): intermediate effect; also recorded: more effective at decreasing cell viability than IFNα alone | cell viability / growth inhibition (MTS assay), result in words (8226/S; listed as Anti-CD138-IFNα2): some effect was observed only at high concentrations | cell viability / growth inhibition (MTS assay), result in words (OCI-My5): more effective than untargeted anti-CD20-IFNα; also recorded: more effective at decreasing cell viability than IFNα alone | cell viability / growth inhibition (MTS assay), result in words (OCI-My5; listed as Anti-CD138-IFNα2): more effective than recombinant IFNα2 | ppRb levels (Western blot) (ppRb in MM1-144): decreased | ppRb levels (Western blot) (ppRb in NCI-H929): decreased | ppRb levels (Western blot) (ppRb in OCI-My5): decreased
